This is an account of results in patent publication US20260315431A1, “NANOMATERIAL ENCAPSULATED BIOFILM INHIBITORS FOR DENTAL CARIES TREATMENT” (THE UAB RESEARCH FOUNDATION, priority 2023, published 2026).

Data set [1] is described as follows: Body weight of animals, HA5 / HA6 study. The note with it: for Weight: 100 μM (NaF 250 ppm); for weight loss: 4-week treatment, 100 μM. Type of data set: in vivo, Fischer 344 rats. The text has this:
(§1) We used Fischer 344 rats that were bred and maintained in trexler isolators for this experiment. Male and female rat pups were removed from isolators at 20 days of age and randomly assigned into treatment groups of 5 rats/group in cages with filter tops. Rats were then infected with S. mutans UA159 strain by oral swabbing daily for four consecutive days with a fresh overnight culture of S. mutans UA159. Rats were provided with caries promoting Teklad Diet 305 containing […] (Harlan Laboratories, Inc., Indianapolis, IN) and sterile drinking water ad libitum. Oral swabs were taken 5 days post-infection and plated on Todd Hewitt (TH) agar plates and incubated at 37° C. in an environment of 5% CO2 in the air to confirm colonization. Rats were weighed at weaning and then weekly throughout the experiment. One-week post-infection, the molars of the rats were brushed twice daily for 4 weeks with the test compounds using camel-hair brushes. Four treatment groups used in this study were: 1) HA5 (100 μM); 2) […] (100 μM); 3) NaF (250 ppm); and 4) infected untreated rats. Drinking water was withheld for 60 min following each treatment with the compound. Animals were weighed at weaning and at the termination of the experiment. On day 60, the rats were sacrificed using CO2 followed by cervical dislocation or bilateral thoracotomy. The mandibles were surgically removed and cleaned of excess tissue to assess the level of bacteria present and the extent of caries formation. The right mandible from each rat was placed in a tube containing phosphate buffer (3 mL), placed on ice and sonicated (10 sec) to release bacteria from the molars. Each sample was serially diluted, plated on blood (BAP) and mitis-salivarius (MS) agar plates and incubated in an environment of 5% CO2 in air at 37° C. to quantify the level of total bacteria and S. mutans present in the plaque. The right and left mandibles from each rat were then placed in 95% ethanol for 24 h. The mandibles will be cleaned and stained overnight with murexide solution. After drying, the mandibles were sectioned and scored for caries activity using the Keyes method Caries scores were recorded for the buccal, sulcal and proximal molar surfaces individually so that differences among the surfaces can be distinguished. Statistical significance in the mean caries scores, colony-forming units (CFU)/mandible and body weights between groups of rats were determined by one-way analysis of variance (ANOVA) with the Tukey-Kramer multiple comparison test using the InStat program (GraphPad Prism 10.0.2.). When determining the statistical significance between the two groups, an unpaired t-test was applied. Differences between groups were considered significant at a P-value<0.05.

In another data set the test system is rat oral microbiome. Briefly: Rat oral microbiome (16S rRNA gene sequencing). Type of data set: in vivo, Fischer 344 rats. Particulars: for overall effect on rat oral microbiome / oral microbiome composition, phylum level: 2-week and 4-week treatment; for oral microbiome composition, phylum level / oral microbiome composition, family level within Firmicutes: 100 μM; for oral microbiome composition, family level within Firmicutes: 4-week treatment; for beta diversity (Bray-Curtis, PERMANOVA): P-value>0.05 vs native community. The method, then:
During this study, rat oral microbiome samples were collected from individual rats (n=5) at the following time points: before the experiment (Native), after inoculation of S. mutans and the start of a caries-promoting diet (Sm+CPD), after two weeks of treatment with the compound (2-week), and at the end of the study (END). The microbiota between the groups at different time points was analyzed for oral bacterial composition and abundance. Oral swabs collected before and after interventions with these compounds were analyzed using the 16s rRNA gene sequencing method. Both ‘within’ (alpha diversity) and ‘between’ (beta diversity) sample diversities were calculated over time for each treatment group using MicrobiomeAnalyst 2.0^[55].
as §1
In addition to recording buccal, sulcal and proximal molar surface caries scores and colony-forming units (CFU)/mandible and body weights between groups of rats as described above, plaque samples from rats treated or untreated were collected and DNA was extracted from each sample and used for PCR amplification of ~430 bp amplicons of 16S ribosomal DNA hypervariable regions V3 and V4, Illumina adaptors, and molecular barcodes as described^[66]. […]

A further data set concerns S. mutans UA159. Nature of the data set: Gnotobiotic rat model of dental caries (HA5 / HA6 study, Example 2). Also on record: key to Buccal Mean Caries Scores (±SEM) E / Buccal Mean Caries Scores (±SEM) Ds / Buccal Mean Caries Scores (±SEM) Dm / Buccal Mean Caries Scores (±SEM) Dx / Sulcal Mean Caries Scores (± SEM) E / Sulcal Mean Caries Scores (± SEM) Ds / Sulcal Mean Caries Scores (± SEM) Dm / Sulcal Mean Caries Scores (± SEM) Dx / Proximal Mean Caries Scores (± SEM) E / Proximal Mean Caries Scores (± SEM) Ds: Keyes method caries scores, mean ± SEM. The data set is classed as in vivo, Fischer 344 rats infected with S. mutans UA159. Particulars: for effect on bacterial colonization / reduction in caries scores: 4-week treatment, 100 μM; for CFU/mL BAP: Blood agar plate; for CFU/mL BAP / CFU/mL MS / Buccal Mean Caries Scores (±SEM) Dx / Sulcal Mean Caries Scores (± SEM) Dx / Buccal Mean Caries Scores (±SEM) Dm / Sulcal Mean Caries Scores (± SEM) Dm / Buccal Mean Caries Scores (±SEM) Ds / Proximal Mean Caries Scores (± SEM) Ds / Sulcal Mean Caries Scores (± SEM) Ds / Buccal Mean Caries Scores (±SEM) E / Proximal Mean Caries Scores (± SEM) E / Sulcal Mean Caries Scores (± SEM) E: 100 μM (NaF 250 ppm); for CFU/mL MS: Mitis-Salivarius agar; for Buccal Mean Caries Scores (±SEM) Dx / Sulcal Mean Caries Scores (± SEM) Dx: dentinal extensive; for Buccal Mean Caries Scores (±SEM) Dx / Sulcal Mean Caries Scores (± SEM) Dx / Buccal Mean Caries Scores (±SEM) Dm / Sulcal Mean Caries Scores (± SEM) Dm / Buccal Mean Caries Scores (±SEM) Ds / Proximal Mean Caries Scores (± SEM) Ds / Sulcal Mean Caries Scores (± SEM) Ds / Buccal Mean Caries Scores (±SEM) E / Proximal Mean Caries Scores (± SEM) E / Sulcal Mean Caries Scores (± SEM) E: twice daily, 4 weeks, n = 5; for Buccal Mean Caries Scores (±SEM) Dm / Sulcal Mean Caries Scores (± SEM) Dm: dentinal moderate; for Buccal Mean Caries Scores (±SEM) Ds / Proximal Mean Caries Scores (± SEM) Ds / Sulcal Mean Caries Scores (± SEM) Ds: dentinal slight; for Buccal Mean Caries Scores (±SEM) E / Proximal Mean Caries Scores (± SEM) E / Sulcal Mean Caries Scores (± SEM) E: enamel. The method, then: To understand how these compounds affect the residential bacterial community, we conducted an in vivo evaluation of both HA5 and HA6 and compared to the untreated and NaF-treated rats using a well-established gnotobiotic rat model of dental caries^[50-54]. Treatment groups used in this study were inhibitor HA5 (100 μM), inhibitor HA6 (100 μM), and vehicle. A UA159 infection only group served as a negative control and a NaF (250 ppm) served as a positive control.
All rats from the experimental groups and from the control groups were colonized with S. mutans UA159. […] The effect of the treatment on dentinal moderate (Dm) and dentinal extensive (Dx) scores in the proximal area were not recorded as there were no observable caries lesions in both control and the treated groups. The observed reductions in caries scores by HA5 or HA6 were slightly lower than the positive control NaF treatment. However, it should be noted that the concentration of NaF (250 ppm=5.95 mM) is about 59-fold higher than the inhibitor treatment dose of 100 μM.
as §1

Entries after “also recorded” stand apart in the source; their conditions may differ. Marks after values point to notes of the source that are not given here.

As for `O=C1/C(=C/c2cc(O)c(O)cc2O)Oc2ccccc21` [HA5, 2-[(2′,4′,5′-Trihydroxyphenyl)methylidene]-2,3-dihydro-1-benzofuran-3-one], in data set [1], the Weight came out at 156 ± 16 g and the “weight loss” value is reported as “did not experience significant weight loss”. Further, in the data set with rat oral microbiome, the “overall effect on rat oral microbiome” value is recorded as “without affecting the rat oral microbiome; also recorded: without perturbing the overall rat oral microbiome significantly; also recorded: do not perturb oral microbiome significantly”; the “oral microbiome composition, phylum level” value is reported as “did not perturb the overall rat oral microbiome at phylum levels significantly”; the “oral microbiome composition, family level within Firmicutes” value is reported as “did not perturb the overall rat oral microbiome significantly within this phylum”; the “beta diversity (Bray-Curtis, PERMANOVA)” value was “without any significant deviations”. For the same compound, in the data set with S. mutans UA159, the “effect on bacterial colonization” value was “did not affect bacterial colonization significantly”, the “reduction in caries scores” value is listed as “significant reductions in buccal caries scores; also recorded: can significantly reduce the caries scores in vivo”, the “CFU/mL BAP” value is on record as 3.9 ± 1.4 CFU/mL (×10^5) and the “CFU/mL MS” value is listed as 2.2 ± 0.8 CFU/mL (×10^5). In the data set on S. mutans UA159, the “Buccal Mean Caries Scores (±SEM) Dx” value was found to be 2.2 ± 0.7, the “Sulcal Mean Caries Scores (± SEM) Dx” value turned out to be 1.0 ± 0.3, the “Buccal Mean Caries Scores (±SEM) Dm” value stood at 3.6 ± 0.4 and the “Sulcal Mean Caries Scores (± SEM) Dm” value was determined as 4.6 ± 0.2. For the same compound, in the data set with S. mutans UA159, the “Buccal Mean Caries Scores (±SEM) Ds” value was determined as 6.6 ± 0.5, the “Proximal Mean Caries Scores (± SEM) Ds” value was determined as 0.0 ± 0.0, the “Sulcal Mean Caries Scores (± SEM) Ds” value is listed as 11.2 ± 0.6 and the “Buccal Mean Caries Scores (±SEM) E” value came out at 7.8 ± 0.4. In the data set with S. mutans UA159, the “Proximal Mean Caries Scores (± SEM) E” value came to 1.0 ± 0.3 and the “Sulcal Mean Caries Scores (± SEM) E” value worked out at 16.4 ± 2.2.

For the compound `O=C1/C(=C/c2cc(O)c(O)c(O)c2)Oc2ccccc21` [HA6, 2-[(3′,4′,5′-Trihydroxyphenyl)methylidene]-2,3-dihydro-1-benzofuran-3-one], in data set [1], the Weight was 165 ± 13 g and the “weight loss” value is on record as “did not experience significant weight loss”. For the same compound, in the data set with rat oral microbiome, the “overall effect on rat oral microbiome” value is given as “without affecting the rat oral microbiome; also recorded: without perturbing the overall rat oral microbiome significantly; also recorded: do not perturb oral microbiome significantly”; the “oral microbiome composition, phylum level” value is listed as “did not perturb the overall rat oral microbiome at phylum levels significantly”; the “oral microbiome composition, family level within Firmicutes” value is reported as “did not perturb the overall rat oral microbiome significantly within this phylum”; the “beta diversity (Bray-Curtis, PERMANOVA)” value is on record as “without any significant deviations”. Besides, in the data set on S. mutans UA159, the “effect on bacterial colonization” value is reported as “did not affect bacterial colonization significantly”, the “reduction in caries scores” value is on record as “significant reductions in buccal caries scores; also recorded: can significantly reduce the caries scores in vivo”, the “CFU/mL BAP” value was 1.9 ± 0.5 CFU/mL (×10^5) and the “CFU/mL MS” value is recorded as 1.3 ± 0.4 CFU/mL (×10^5). For the same compound, in the data set on S. mutans UA159, the “Buccal Mean Caries Scores (±SEM) Dx” value was 1.2 ± 0.5, the “Sulcal Mean Caries Scores (± SEM) Dx” value is reported as 1.6 ± 0.4, the “Buccal Mean Caries Scores (±SEM) Dm” value was determined as 4.0 ± 0.7 and the “Sulcal Mean Caries Scores (± SEM) Dm” value came out at 6.4 ± 0.4. Also, in the data set with S. mutans UA159, the “Buccal Mean Caries Scores (±SEM) Ds” value was 6.8 ± 0.5, the “Proximal Mean Caries Scores (± SEM) Ds” value is on record as 0.0 ± 0.0, the “Sulcal Mean Caries Scores (± SEM) Ds” value turned out to be 11.2 ± 0.7 and the “Buccal Mean Caries Scores (±SEM) E” value amounted to 8.2 ± 0.7. Besides, in the data set on S. mutans UA159, the “Proximal Mean Caries Scores (± SEM) E” value worked out at 1.2 ± 0.8 and the “Sulcal Mean Caries Scores (± SEM) E” value was found to be 14.6 ± 0.9.

Compound `[F-].[Na+]` [NaF, reference compound] had a Weight in data set [1] of 145 ± 12 g. Further, the “oral bacterial community after Sm+CPD (beta diversity)” value with rat oral microbiome (NaF-treated group, PERMANOVA, P-value>0.001 (so in the source)) is “the community was shifted”. Also, the “abundance of the Streptococcaceae family” value with rat oral microbiome (second week, not sustained till the end of the study) is on record as “increase in the abundance of the Streptococcaceae family”. Also, in the data set on S. mutans UA159, the “CFU/mL BAP” value is 2.8 ± 0.7 CFU/mL (×10^5), the “CFU/mL MS” value is reported as 1.6 ± 0.6 CFU/mL (×10^5), the “Buccal Mean Caries Scores (±SEM) Dx” value came out at 0.4 ± 0.2 and the “Sulcal Mean Caries Scores (± SEM) Dx” value was 1.6 ± 0.5. Besides, in the data set on S. mutans UA159, the “Buccal Mean Caries Scores (±SEM) Dm” value was determined as 1.6 ± 0.5, the “Sulcal Mean Caries Scores (± SEM) Dm” value is recorded as 5.4 ± 0.4, the “Buccal Mean Caries Scores (±SEM) Ds” value is on record as 3.2 ± 0.9 and the “Proximal Mean Caries Scores (± SEM) Ds” value is listed as 0.0 ± 0.0. Further, in the data set on S. mutans UA159, the “Sulcal Mean Caries Scores (± SEM) Ds” value is given as 10.4 ± 0.5, the “Buccal Mean Caries Scores (±SEM) E” value was determined as 6.2 ± 0.9, the “Proximal Mean Caries Scores (± SEM) E” value was 0.0 ± 0.0 and the “Sulcal Mean Caries Scores (± SEM) E” value was 15.2 ± 0.7.
